The numbers were not newly measured in US20120064058A1, “COMPOSITIONS FOR PROTEIN-BASED DIETARY PRODUCTS” (ITALFARMACIA SRL, priority 2008, published 2012), which cites them from elsewhere.

The mark [1] stands for this setting: compared with untreated diabetic rats.

SMILES strings stand for the structures.

Take `NCC(=O)O` [Glycine]: in the data set with diabetic rats (setting [1]), the “expression of O-acetyl sialic acid in brain vessels” value is “diminished expression”; the “incidence of opacity in lens and microaneurysms in the eyes” value is reported as “reduced incidence”. Also, the corporal weight loss entry with diabetic rats (in comparison with non-treated animals) was “less intense corporal weight loss”.
Consider `N=C(N)NCCC[C@H](N)C(=O)O` [L-Arginine], for which, in the data set on rats, the “excretion of orotic acid in the urine” value is recorded as “less excretion of orotic acid in the urine”. Further, in the data set with rats (long-term consequence of a protein rich regimen), the kidney hypertrophy result is “can prevent kidney hypertrophy”.
For the molecule `NCCS(=O)(=O)O` [L-Taurine], the renal functionality entry in the data set on diabetic rats is “beneficial effects on renal functionality”.
